Source: ChEMBL document CHEMBL4813910, “Curse or Cure? A Perspective on the Developability of Aldehydes as Active Pharmaceutical Ingredients” (J Med Chem, 2020)
One block for each compound: values may come before it.

How the values were obtained:
[1] = AUC (0 to 24 hrs) in human plasma at 37 mg/kg, po by HPLC method; assay type: ADME, organism-based; set-up: time < 24 hr, route oral, dose 37 mg/kg; conditions: in vivo
[2] = Cmax in human erythrocytes at 37 mg/kg, po; assay type: ADME, organism-based, Erythrocyte; set-up: route oral, dose 37 mg/kg
[3] = Tmax in human plasma at 37 mg/kg, po by HPLC method; assay type: ADME, organism-based
[4] = Ratio of drug level in human erythrocytes to plasma at 20 mg/kg, iv measured over 1 hr; assay type: ADME, organism-based
[5] = Half life in human plasma at 37 mg/kg, po by HPLC method; assay type: ADME, organism-based
[6] = Cmax in human plasma at 37 mg/kg, po by HPLC method; assay type: ADME, organism-based; set-up: route oral, dose 37 mg/kg
[7] = Tmax in human erythrocytes at 37 mg/kg, po by HPLC method; assay type: ADME, organism-based, Erythrocyte
[8] = Half life in human erythrocytes at 37 mg/kg, po by HPLC method; assay type: ADME, organism-based, Erythrocyte
[9] = AUC (0 to 24 hrs) in human erythrocytes at 37 mg/kg, po by HPLC method; assay type: ADME, organism-based, Erythrocyte; set-up: time < 24 hr, route oral, dose 37 mg/kg
[10] = Elimination half life in human at 20 mg/kg, iv measured over 1 hr; assay type: ADME, organism-based; conditions: in vivo, read-out: beta t1/2 (converted)
[11] = AUC (0 to 24 hrs) in human at 20 mg/kg, iv measured over 1 hr; assay type: ADME, organism-based; set-up: route intravenous, time 1 hrs, dose 20 mg/kg; conditions: in vivo
[12] = Volume of distribution in human at 20 mg/kg, iv measured over 1 hr; assay type: ADME, organism-based; conditions: in vivo
[13] = Cmax in human plasma at 2.8 g, po by liquid chromatography-tandem mass spectrometry method; assay type: ADME, organism-based; set-up: route oral, dose 2.8 g
[14] = Clearance in human at 2.8 g, po by liquid chromatography-tandem mass spectrometry method; assay type: ADME, organism-based; conditions: in vivo
[15] = Cmax in human erythrocytes at 2.8 g, po by liquid chromatography-tandem mass spectrometry method; assay type: ADME, organism-based, Erythrocyte; set-up: route oral, dose 2.8 g
[16] = Tmax in human erythrocytes at 2.8 g, po by liquid chromatography-tandem mass spectrometry method; assay type: ADME, organism-based, Erythrocyte
[17] = AUC (0 to 24 hrs) in human plasma at 2.8 g, po by liquid chromatography-tandem mass spectrometry method; assay type: ADME, organism-based; set-up: time < 24 hr, route oral, dose 2.8 g
[18] = Tmax in human plasma at 2.8 g, po by liquid chromatography-tandem mass spectrometry method; assay type: ADME, organism-based
[19] = Ratio of drug level in human erythrocytes to plasma at 2.8 g, po; assay type: ADME
[20] = Induction of hemoglobin modification in human at 900 mg/day
[21] = Central volume of distribution in human at 2.8 g, po; assay type: ADME; conditions: in vivo
[22] = Non-renal clearance in human at 0.5 g, iv; assay type: ADME; conditions: in vivo
[23] = Cmax in human at 0.5 g, iv; assay type: ADME; set-up: route intravenous, dose 0.5 g; conditions: in vivo
[24] = Cmax in human at 2 g, po; assay type: ADME; set-up: route oral, dose 2 g; conditions: in vivo
[25] = Tmax in human serum at 2 g, po; assay type: ADME
[26] = Half life in human at 0.5 g, iv; assay type: ADME; conditions: in vivo
[27] = Protein binding in human plasma at 2 g, po; assay type: ADME, cell-free
[28] = Renal clearance in human at 0.5 g, iv; assay type: ADME; conditions: in vivo
[29] = Cmax in human serum at 2 g, po; assay type: ADME, cell-free; set-up: route oral, dose 2 g
[30] = Volume of distribution at steady state in human at 0.5 g, iv; assay type: ADME; conditions: in vivo
[31] = Drug excretion in human urine at 0.5 g, iv measured within 24 hrs; assay type: ADME, organism-based; conditions: in vivo
[32] = Oral bioavailability in human at 2 g; assay type: ADME, organism-based; conditions: in vivo
[33] = AUC (0 to infinity) in human serum at 2 g, po; assay type: ADME, cell-free; set-up: route oral, time infinity, dose 2 g
[34] = Drug excretion in human urine at 2 g, po measured within 24 hrs; assay type: ADME, organism-based; conditions: in vivo
[35] = Half life in human at 2 g, po; assay type: ADME; conditions: in vivo
[36] = Tmax in human at 2 g, po; assay type: ADME; conditions: in vivo
[37] = Total clearance in human at 0.5 g, iv; assay type: ADME; conditions: in vivo

AUC [1]: 62 µM·h
Cmax [2]: 2460 µM
Tmax [3]: 7.5 h
Kp at 1 h [4]: < 11.2
half-life [5]: 223 h
Cmax [6]: 271 µM
Tmax [7]: 24 h
half-life [8]: 120 h
AUC(0-t) at 24 h [9]: 579 µM·h
Compound: O=Cc1c(O)cccc1OCc1ccc(C(=O)O)cc1 [TUCARESOL]

half-life [10]: 2.2 h
AUC [11]: 5.18 µM·h
Kp at 1 h [4]: 14.3
Vd [12]: 0.067 L/kg
Compound: O=Cc1c(O)cccc1OCCCCC(=O)O [VELARESOL]

Cmax [13]: 18.7 µM
CL/F [14]: 5.4 mL/h/kg
Cmax [15]: 1110 µM
Tmax [16]: 17.1 h
AUC(0-t) at 24 h [17]: 1280 µM·h
Tmax [18]: 7.1 h
Kp [19]: 67
Activity [20]: 40%
Vc [21]: 5.2 L/kg
Compound: CC(C)n1nccc1-c1ncccc1COc1cccc(O)c1C=O [VOXELOTOR]

CL [22]: 887 mL/min
Cmax [23]: 2.7 µM
Cmax [24]: 2 µM
Tmax [25]: 3.3 h
t1/2 [26]: 5.54 h
PPB [27]: 48%
CL [28]: 144.2 mL/min
Cmax [29]: 3.7 µM
Vdss [30]: 5.5 L/kg
Drug excretion [31]: 13.9%
F [32]: 10%
AUC [33]: 12 µM·h
Drug excretion [34]: 4.4%
t1/2 [35]: 6.23 h
Tmax [36]: 4 h
CL [37]: 1.14 L/min
Compound: SPIRAMYCIN
